Laboratory results published in US8034811B2, “Hydroxamic acid esters and pharmaceutical use thereof” (Leo Pharma A/S, priority 2003, dated 2011).

Molecular target: T1, human intracellular domain of KDR (VEGF Receptor-2) (Homo sapiens, UniProt P35968)
T1 construct: A fusion protein containing the intracellular domain (amino acids 793 to 1357) of the KDR and N-terminally tagged to GST; made in house; host or cells: Sf9 insect cells (baculovirus, pDEST20) for GST-KDR-cyt; E. coli BL21 (pGEX-4T-1) for GST-PLCγ
Experiment: In vitro KDR kinase assay
Format: biochemical
Settings: IC50 as molar concentration; GST-KDR-cyt, substrate phospholipase Cγ, ATP 100 μM, 30 min room temperature, time-resolved fluorometry
Protocol: The intracellular domain of the KDR receptor was used in the in vitro KDR assay. This domain contains the tyrosine kinase domain of KDR, and when expressed in Sf9 cells, this domain is constitutively active i.e. the kinase domain is phosphorylated on tyrosine residues.
The compounds to be tested were dissolved in DMSO at 10 mM, stored at −20° C. and protected from light. The maximum concentration of DMSO in the in vitro assay was 0.1%. Control samples received the same concentration of solvent as the samples treated with the test compounds.
For the kinase assays, black 96 wells MaxiSorp microtiter plates were coated by an overnight incubation with 100 μl/well of a 2.5 μg/ml solution of phospholipase Cγ in TBS buffer (40 mM Tris-HCl, pH 7.4, 20 mM Mg(C2H3O2)2, 0.02% NaN3) at 4° C. The plates were washed 3 times with TBS buffer containing 0.1% Tween-20, and the residual binding sites were masked by incubation with 1% BSA in TBS buffer containing 0.1% Tween-20 for 1 h. The plates were washed again and the test compounds were added at final concentrations up to 10 μM, together with ATP at the final concentration of 100 μM in 50 μl TBS buffer/well. Then, 50 μl of the human intracellular domain of KDR (VEGF Receptor-2) finally diluted 3000-3500 fold were added and were incubated for 30 min at room temperature. The plates were washed and 100 μl of the Europium labelled PY-20 anti-phosphotyrosine antibody (Wallac, FIN) were incubated in each well at the concentration of approximately 114 ng/ml for 2 h. Then, the plates were washed and 100 μl of enhancer solution (Wallac, FIN) were incubated in each well for 5 min in the dark. The plates were read in a Victor 1420 multilabel counter, using a Europium protocol for time-resolved fluorometry (Wallac, FIN): excitation 340 nm, emission 615 nm, sample pulse cycle 400 μs. Fluorescence was measured for 400 μs between flashes after a delay time of 400 μs. The background measured in the absence of enzyme was subtracted from all samples. The molar concentrations that inhibited 50% of the maximal enzymatic activity (IC50) were calculated from the dose-response curve, by fitting a straight line between the two concentrations immediately above and below the 50% inhibition point (i.e. by solving the equation y=a+bx).

T1 sequence (P35968 794-1356 limits assumed): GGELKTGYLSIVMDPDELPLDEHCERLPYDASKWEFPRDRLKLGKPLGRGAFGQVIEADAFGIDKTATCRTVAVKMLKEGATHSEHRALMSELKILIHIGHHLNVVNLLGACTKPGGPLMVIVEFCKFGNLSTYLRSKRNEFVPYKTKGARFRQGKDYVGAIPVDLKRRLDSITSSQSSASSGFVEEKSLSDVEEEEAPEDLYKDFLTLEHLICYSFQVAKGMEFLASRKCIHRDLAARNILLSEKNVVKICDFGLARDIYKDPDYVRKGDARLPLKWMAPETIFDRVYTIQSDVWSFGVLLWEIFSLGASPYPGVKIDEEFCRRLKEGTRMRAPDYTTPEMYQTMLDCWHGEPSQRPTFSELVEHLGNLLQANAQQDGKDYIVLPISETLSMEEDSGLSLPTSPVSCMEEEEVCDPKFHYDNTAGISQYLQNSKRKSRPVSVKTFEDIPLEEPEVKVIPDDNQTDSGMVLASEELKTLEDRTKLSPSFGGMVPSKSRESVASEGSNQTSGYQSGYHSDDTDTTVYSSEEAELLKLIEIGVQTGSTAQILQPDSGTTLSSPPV

| SMILES | IC50 [µM] |
| --- | --- |
| O=C(NOCC1CCCC1)c1ccccc1NCc1ccncc1 [Compound 113, N-Cyclopentylmethoxy-2-[(pyridin-4-ylmethyl)-amino]-benzamide] | 0.00251 |
| O=C(NOCc1ccc(F)cc1Cl)c1ccccc1NCc1ccncc1 [Compound 24, N-(2-Chloro-4-fluoro-benzyloxy)-2-[(pyridin-4-ylmethyl)-amino]-benzamide] | 0.02 |
| O=C(NOCc1ccccc1)c1ccccc1NCc1ccc2occc2c1 [Compound 198, 2-[(Benzofuran-5-ylmethyl)-amino]-N-benzyloxy-benzamide] | 0.0631 |
| O=C(NOCC1CCCCCC1)c1ccccc1NCc1ccncc1 [Compound 121, N-Cycloheptylmethoxy-2-[(pyridin-4-ylmethyl)-amino]-benzamide] | 0.0501 |
| N#Cc1ccc(CONC(=O)c2ccccc2NCc2ccnc(NC(=O)C3CC3)c2)cc1 [compound 226] | 0.00631 |
| O=C(NOCc1ccc(F)cc1)c1ccccc1NCc1ccnc(Br)c1 [Compound 204, 2-[(2-Bromo-pyridin-4-ylmethyl)-amino]-N-(4-fluoro-benzyloxy)benzamide] | 0.0631 |
| O=C(NOCc1ccc(Cl)c(Cl)c1)c1ccccc1NCc1ccncc1 [Compound 15, N-(3,4-Dichloro-benzyloxy)-2-[(pyridine-4-ylmethyl)-amino]-benzamide] | 0.0501 |
| O=C(NOCc1ccc2c(c1)CCC2)c1ccccc1NCc1ccncc1 [Compound 73, N-(Indan-5-ylmethoxy)-2-[(pyridin-4-ylmethyl)-amino]-benzamide] | 0.0158 |
| O=C(NOCc1ccccc1I)c1ccccc1NCc1ccncc1 [Compound 45, N-(2-Iodo-benzyloxy)-2-[(pyridin-4-ylmethyl)-amino]-benzamide] | 0.0316 |
| O=C(NOCc1ccc(Cl)s1)c1ccccc1NCc1ccncc1 [Compound 111, N-(5-Chloro-thiophen-2-ylmethoxy)-2-[(pyridin-4-ylmethyl)-amino]-benzamide] | 0.0794 |
| CNC(=O)Nc1cc(CNc2ccccc2C(=O)NOCc2ccc(C#N)cc2)ccn1 [Compound 210, N-(4-Cyano-benzyloxy)-2-{[2-(3-methyl-ureido)-pyridin-4-ylmethyl]-amino}-benzamide] | 0.00794 |
| O=C(NOCc1ccccc1SC(F)(F)F)c1ccccc1NCc1ccncc1 [Compound 70, 2-[(Pyridin-4-ylmethyl)-amino]-N-(2-trifluoromethylsulfanyl-benzyloxy)-benzamide] | 0.0316 |
| CS(=O)(=O)Nc1cc(CNc2ccccc2C(=O)NOCC2CCCC2)ccn1 [Compound 208, N-Cyclopentylmethoxy-2-[(2-methanesulfonylamino-pyridin-4-ylmethyl)-amino]-benzamide] | 0.0794 |
| COC(=O)c1ccc(CONC(=O)c2ccccc2NCc2ccncc2)cc1 [Compound 26, 4-{2-[(pyridin-4-ylmethyl)-amino]-benzoylaminooxymethyl}-benzoic acid methyl ester] | 0.0794 |
| O=C(NOCc1ccccc1[N+](=O)[O-])c1ccccc1NCc1ccncc1 [Compound 3, N-(2-Nitro-benzyloxy)-2-[(pyridin-4-ylmethyl)-amino]-benzamide] | 0.1 |
| O=C(NOCc1c(F)cccc1Cl)c1ccccc1NCc1ccncc1 [Compound 23, N-(2-Chloro-6-fluoro-benzyloxy)-2-[(pyridin-4-ylmethyl)-amino]-benzamide] | 0.0251 |
| O=C(NOCc1c(Cl)cccc1Cl)c1ccccc1NCc1ccncc1 [Compound 16, N-(2,6-Dichloro-benzyloxy)-2-[(pyridin-4-ylmethyl)-amino]-benzamide] | 0.0251 |
| CCOC(=O)CNC(=O)Nc1cc(CNc2ccccc2C(=O)NOCC2CCCC2)ccn1 [compound 215] | 0.0631 |
| COc1cc(C#N)ccc1CONC(=O)c1cccnc1NCc1ccncc1 [Compound 162, N-(4-Cyano-2-methoxy-benzyloxy)-2-[(pyridin-4-ylmethyl)-amino]-nicotinamide] | 0.0631 |
| O=C(NOCC1CCCO1)c1ccccc1NCc1ccncc1 (stereo not drawn) [Compound 135, 2-[(Pyridin-4-ylmethyl)-amino]-N-(tetrahydro-furan-2-ylmethoxy)-benzamide] | 0.0794 |
| O=C(NOCc1ccc(Cl)cc1)c1ccccc1NCc1ccncc1 [Compound 10, N-(4-Chloro-benzyloxy)-2-[(pyridin-4-ylmethyl)-amino]-benzamide] | 0.0501 |

| SMILES | IC50 [µM] |
| --- | --- |
| O=C(NOCc1ccccc1OC(F)(F)F)c1ccccc1NCc1ccncc1 [Compound 66, 2-[(Pyridin-4-ylmethyl)-amino]-N-(2-trifluoromethoxy-benzyloxy)-benzamide] | 0.0631 |
| Cc1ccc(F)cc1CONC(=O)c1ccccc1NCc1ccncc1 [Compound 42, N-(5-Fluoro-2-methyl-benzyloxy)-2-[(pyridin-4-ylmethyl)-amino]-benzamide] | 0.01 |
| N#Cc1ccc(CONC(=O)c2ccccc2NCc2ccnc(NC(=O)NCCO)c2)cc1 [compound 220] | 0.00794 |
| O=C(NOCc1cnc(Cl)s1)c1ccccc1NCc1ccncc1 [Compound 106, N-(2-Chloro-thiazol-5-ylmethoxy)-2-[(pyridin-4-ylmethyl)-amino]-benzamide] | 0.0501 |
| N#Cc1ccc(CONC(=O)c2ccccc2NCc2ccncc2)cc1Br [Compound 77, N-(3-Bromo-4-cyano-benzyloxy)-2-[(pyridin-4-ylmethyl)-amino]-benzamide] | 0.0398 |
| COc1ccc(CONC(=O)c2cccnc2NCc2ccc(F)cc2)cc1 [Compound 34, 2-(4-Fluoro-benzylamino)-N-(4-methoxy-benzyloxy)-nicotinamide] | 0.794 |
| O=C(NOCc1ccc(F)c(C(F)(F)F)c1)c1ccccc1NCc1ccncc1 [Compound 61, N-(4-Fluoro-3-trifluoromethyl-benzyloxy)-2-[(pyridin-4-ylmethyl)-amino]-benzamide] | 0.0158 |
| O=C(NOCc1ccccc1Br)c1ccccc1NCc1ccncc1 [Compound 13, N-(2-Bromo-benzyloxy)-2-[(pyridin-4-ylmethyl)-amino]-benzamide] | 0.0158 |
| N#Cc1ccc(CONC(=O)c2ccccc2NCc2ccnc(N)c2)cc1 [Compound 206, 2-[(2-Amino-pyridin-4-ylmethyl)-amino]-N-(4-cyano-benzyloxy)-benzamide] | 0.0398 |
| O=C(NOCC1CCCCCCC1)c1ccccc1NCc1ccncc1 [Compound 122, N-Cyclooctylmethoxy-2-[(pyridin-4-ylmethyl)-amino]-benzamide] | 0.00794 |
| COc1ccc(CNc2ccccc2C(=O)NOCc2ccccc2)cn1 [compound 236] | 0.0794 |
| Cc1ccc(CONC(=O)c2ccccc2NCc2ccncc2)cc1F [Compound 41, N-(3-Fluoro-4-methyl-benzyloxy)-2-[(pyridin-4-ylmethyl)-amino]-benzamide] | 0.02 |
| COc1cc(F)ccc1CONC(=O)c1ccccc1NCc1ccncc1 [Compound 39, N-(4-Fluoro-2-methoxy-benzyloxy)-2-[(pyridin-4-ylmethyl)-amino]-benzamide] | 0.00631 |
| O=C(NOC1CCCCC1)c1ccccc1NCc1ccncc1 [Compound 124, N-Cyclohexyloxy-2-[(pyridin-4-ylmethyl)-amino]-benzamide] | 0.0631 |
| CC1(C)[C@H]2CC[C@@H](CONC(=O)c3ccccc3NCc3ccncc3)[C@@H]1C2 [Compound 134] | 0.0251 |
| O=C(NOCc1cccc(F)c1)c1ccccc1NCc1ccncc1 [Compound 21, N-(3-Fluoro-benzyloxy)-2-[(pyridin-4-ylmethyl)-amino]-benzamide] | 0.0251 |
| O=C(NOCC1CCCC1)c1ccccc1NCc1ccnc2ccccc12 [compound 233] | 0.01 |
| COc1cccc(CONC(=O)c2ccccc2NCc2ccncc2)c1 [Compound 8, N-(3-Methoxy-benzyloxy)-2-[(pyridin-4-ylmethyl)-amino]-benzamide] | 0.0316 |
| Cc1ccc(CONC(=O)c2ccccc2NCc2ccncc2)cc1C(F)(F)F [Compound 62, N-(4-Methyl-3-trifluoromethyl-benzyloxy)-2-[(pyridin-4-ylmethyl)-amino]-benzamide] | 0.0631 |
| O=C(NOCC1C[C@@H]2CC[C@H]1C2)c1ccccc1NCc1ccncc1 (stereo in doubt) [Compound 133, N-(Bicyclo[2.2.1]hept-2-ylmethoxy)-2-[(pyridin-4-ylmethyl)-amino]-benzamide] | 0.02 |
| O=C(NOCc1ccc([N+](=O)[O-])cc1)c1ccccc1NCc1ccncc1 [Compound 2, N-(4-Nitro-benzyloxy)-2-[(pyridin-4-ylmethyl)-amino]-benzamide] | 0.126 |
